These results are taken from US10058566B2, “Sulfated polygulonic acid polysaccharide or pharmaceutical salt thereof, preparation method therefor and use thereof” (SHANGHAI INSTITUTE OF MATERIA MEDICA CHINESE ACADEMY OF …, priority 2013, dated 2018).

The structures appear in SMILES notation.

The test system of assay [1] is lung metastasis of human breast cancer MDA-MB-435 orthotopic xenografts. As to the kind of experiment: Lung metastasis of human breast cancer MDA-MB-435 orthotopic xenografts. As to conditions: 5 mg/kg, intravenous injection once per week for 7 continuous weeks. Format: in vivo, nude mice (BALB/cA). As for the experimental part:
(§1) Human breast cancer MDA-MB-435 cells (from American Type Culture Collection, ATCC, Rockville, Md., USA) in an exponential growth phase at a concentration of 2.5×10^7 cells/ml were inoculated into the second left mammary fat pad of 4-5-week old female nude mice (BALB/cA, provided by Shanghai Institute of Materia Medica, Chinese Academy of Sciences). When the tumors were grown to the size of 100-200 mm^3, the animals were evenly divided according tumor volumes into a negative control group, a doxorubicin injection (Adriamycin, ADM) treatment group (positive control group), and 5 mg/kg and 20 mg/kg PGAS treatment groups (PGAS experimental groups), 20 mice/group. […] In the experiments, a vernier caliper was used to measure the diameter of tumors twice a week, and the tumor volume (V) was calculated following the formula below: V=½×a×b^2
The animals were sacrificed 1 week after discontinuation of dosing. […] The number of lung metastasis nodes per lung was observed and recorded under a dissecting microscope. […] A part of lungs and orthotopic tumor tissues were fixed in 10% formalin, and angiogenesis in tumor tissues was determined by H&E staining and immunohistochemistry.
(§2) At this point of time, the animals are sacrificed and subjected to anti-tumor effect evaluation. […] Further, the effect of PGAS on angiogenesis in vivo was evaluated by immunohistochemical staining.
(In xenograft studies the graft and the host belong to different species.)

Assay [2] has as its system human breast cancer MDA-MB-435 orthotopic xenografts. As to the kind of experiment: Growth of human breast cancer MDA-MB-435 orthotopic xenografts in nude mice. Format: in vivo, nude mice (BALB/cA). As to conditions: 5 mg/kg, intravenous injection once per week for 7 continuous weeks. As for the experimental part:
as §1
in which, a and b represent the length and the width of tumors, respectively. The relative tumor volume (RTV) was calculated based on the measured results, using the calculation formula: RTVt=Vt/Vo; in which, V0 is the measured tumor volume when animals were divided to different dosing (i.e. d0), and Vt is the tumor volume on the day of measurement. […]
as §2

With `COc1cccc2c1C(=O)c1c(O)c3c(c(O)c1C2=O)C[C@@](O)(C(=O)CO)C[C@@H]3O[C@H]1C[C@H](N)[C@H](O)[C@H](C)O1` [ADM, Doxorubicin], in assay [1], the “inhibition rate on lung metastasis” value came to 89.8%. Also, in assay [2], the “relative tumor proliferation rate T/C” value is listed as 21.8%.
